Laboratory results published in US9101616B2, “Aryl substituted carboxamide derivatives as calcium or sodium channel blockers” (RaQualia Pharma Inc., priority 2009, dated 2015).

Target: T1, human T-type channel alpha-1H (CaV 3.2) (Homo sapiens, UniProt O95180)
T1 construct: expressed in transfected cells; host or cells: HEK 293
Assay: Ca2+ Influx Assay (cell-based fluorescent, FDSS)
Conditions: HEK 293 cells expressing human CaV 3.2
Procedure: Inhibition of T-type calcium channel activity was determined by cell-based flu-orescent Ca^2+ influx assay, in which potassium ionophore was added to decrease resting membrane potential and extra-cellular high-K^+ stimulation was used to modulate the membrane potential of the cell. The changes in fluorescent signal were monitored by the cell imaging technology by Hamamatsu Photonics's Functional Drug Screening System (FDSS).
HEK 293 cells expressing the human T-type channel alpha-1H (CaV 3.2) were maintained in DMEM supplemented with 10% heat-inactivated FBS, 100 units/ml Penicillin, 100 microg/ml Streptomycin, 150 microg/ml Zeocin, 300 microg/ml Geneticin. The cells were grown in a 5% CO2 humidified incubator at 37° C.
• 1. Cells were harvested and seeded in a poly-D-lysine coated black-sided clear bottom 384-well plate at density of 10,000 cells/well at 24 hours prior to assay. • 2. Incubate at 37° C. in 5% CO2. Day Two: • 1. Wash each well with assay buffer (see below) and leave 20 RI using plate washer, ELx-405 Select CW (BIO-TEK). • 2. Add 20 μL of assay buffer containing 6 μM Fluo-4-AM (Molecular Probes) and 0.005% Pluronic F-127 to each well. • 3. Incubate the plate at 37° C. for 1 hour. • 4. Wash each well assay buffer (see below) and leave 20 μl using plate washer, ELx-405 Select CW (BIO-TEK). • 5. Add 10 μl of compound solution into each well by FDSS6000 and leave the plate for 4.5 min, and then add 10 μl of potassium ionophore solution. • 6. Add 20 μl of high-K^+ depolarizing solution (see below) and monitor the change of fluorescent signal.
The IC50 values for compounds of the present invention were determined from 7-point dose-response studies. Curves were generated using the average of duplicate wells for each data point. Finally, the IC50 values are calculated with the best-fit dose curve determined by XLfit.

T1 sequence (O95180 whole entry): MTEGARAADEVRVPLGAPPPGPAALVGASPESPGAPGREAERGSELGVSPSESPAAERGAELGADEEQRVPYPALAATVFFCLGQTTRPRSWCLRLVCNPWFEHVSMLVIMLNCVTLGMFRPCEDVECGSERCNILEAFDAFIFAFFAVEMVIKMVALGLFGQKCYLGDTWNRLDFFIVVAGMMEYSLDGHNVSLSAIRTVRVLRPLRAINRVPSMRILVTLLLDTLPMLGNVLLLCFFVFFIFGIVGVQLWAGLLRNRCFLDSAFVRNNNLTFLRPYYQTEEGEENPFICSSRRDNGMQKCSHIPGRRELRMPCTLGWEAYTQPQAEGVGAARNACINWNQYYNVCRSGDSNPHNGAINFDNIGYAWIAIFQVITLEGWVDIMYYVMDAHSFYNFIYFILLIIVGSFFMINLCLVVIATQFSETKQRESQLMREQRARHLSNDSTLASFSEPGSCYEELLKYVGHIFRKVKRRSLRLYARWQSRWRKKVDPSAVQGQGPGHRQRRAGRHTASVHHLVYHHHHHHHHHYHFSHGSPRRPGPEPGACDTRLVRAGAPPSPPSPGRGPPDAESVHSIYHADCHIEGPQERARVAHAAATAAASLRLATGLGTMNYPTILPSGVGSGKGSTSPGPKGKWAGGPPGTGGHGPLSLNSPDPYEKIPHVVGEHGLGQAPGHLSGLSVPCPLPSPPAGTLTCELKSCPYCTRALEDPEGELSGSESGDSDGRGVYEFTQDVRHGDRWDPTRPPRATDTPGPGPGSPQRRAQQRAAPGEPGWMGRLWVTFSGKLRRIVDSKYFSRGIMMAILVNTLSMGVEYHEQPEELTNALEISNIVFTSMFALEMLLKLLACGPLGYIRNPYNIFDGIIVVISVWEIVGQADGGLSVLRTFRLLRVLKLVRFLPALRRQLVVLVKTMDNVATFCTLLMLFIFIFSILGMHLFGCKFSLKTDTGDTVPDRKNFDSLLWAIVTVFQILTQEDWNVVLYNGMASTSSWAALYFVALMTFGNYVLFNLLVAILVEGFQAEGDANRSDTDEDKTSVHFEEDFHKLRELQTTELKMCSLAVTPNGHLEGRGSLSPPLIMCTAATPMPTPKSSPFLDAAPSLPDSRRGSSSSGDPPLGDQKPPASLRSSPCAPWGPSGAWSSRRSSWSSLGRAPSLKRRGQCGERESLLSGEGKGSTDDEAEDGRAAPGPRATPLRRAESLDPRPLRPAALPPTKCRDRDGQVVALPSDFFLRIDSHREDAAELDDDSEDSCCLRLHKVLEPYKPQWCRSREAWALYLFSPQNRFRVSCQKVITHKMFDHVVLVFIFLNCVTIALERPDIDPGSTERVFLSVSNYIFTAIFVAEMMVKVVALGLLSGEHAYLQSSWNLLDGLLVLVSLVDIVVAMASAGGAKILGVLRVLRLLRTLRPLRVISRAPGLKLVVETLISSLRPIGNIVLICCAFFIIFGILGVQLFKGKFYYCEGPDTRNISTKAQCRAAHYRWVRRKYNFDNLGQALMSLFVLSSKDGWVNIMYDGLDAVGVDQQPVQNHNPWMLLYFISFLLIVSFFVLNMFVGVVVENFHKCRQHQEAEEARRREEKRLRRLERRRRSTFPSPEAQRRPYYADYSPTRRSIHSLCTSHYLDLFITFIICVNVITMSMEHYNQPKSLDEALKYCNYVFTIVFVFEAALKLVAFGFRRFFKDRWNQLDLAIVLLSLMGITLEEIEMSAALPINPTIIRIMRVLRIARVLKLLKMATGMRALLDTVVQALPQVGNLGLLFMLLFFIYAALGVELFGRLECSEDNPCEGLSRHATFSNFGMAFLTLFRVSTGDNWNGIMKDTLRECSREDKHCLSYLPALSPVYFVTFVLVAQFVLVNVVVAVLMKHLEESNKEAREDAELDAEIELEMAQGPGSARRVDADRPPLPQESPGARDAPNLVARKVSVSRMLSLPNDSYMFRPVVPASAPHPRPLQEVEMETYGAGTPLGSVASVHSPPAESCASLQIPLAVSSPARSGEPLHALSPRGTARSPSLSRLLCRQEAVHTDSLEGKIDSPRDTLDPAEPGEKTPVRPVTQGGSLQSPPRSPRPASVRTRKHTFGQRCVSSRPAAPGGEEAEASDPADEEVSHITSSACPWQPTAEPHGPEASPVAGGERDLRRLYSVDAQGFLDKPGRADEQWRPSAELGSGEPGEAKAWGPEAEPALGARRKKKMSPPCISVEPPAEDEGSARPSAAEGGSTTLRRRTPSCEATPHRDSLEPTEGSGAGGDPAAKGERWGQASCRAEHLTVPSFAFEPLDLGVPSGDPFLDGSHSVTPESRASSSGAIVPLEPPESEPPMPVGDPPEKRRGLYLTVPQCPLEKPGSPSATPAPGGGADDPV

With C[C@@H](NC(=O)[C@H]1C[C@@H]1c1cccc2cc[nH]c12)c1ccc(OCC(F)(F)F)cn1 (relative stereo) [Example 275, (1S*,2S*)-2-(1H-indol-7-yl)-N-((R)-1-(5-(2,2,2-trifluoroethoxy)pyridin-2-yl)ethyl)cyclopropanecarboxamide] as the compound, how does the IC50 read?
Its IC50 is at most 0.3 µM.

How did the IC50 turn out when C[C@@H](NC(=O)[C@@H]1C[C@H]1c1cccc2cc[nH]c12)c1ccc(OCC(F)(F)F)cn1 (relative stereo) [Example 276, (1R*,2R*)-2-(1H-indol-7-yl)-N-((R)-1-(5-(2,2,2-trifluoroethoxy)pyridin-2-yl)ethyl)cyclopropanecarboxamide] was run?
Its IC50 is at most 0.3 µM.

Which IC50 does the source give for C[C@@H](NC(=O)[C@@H]1C[C@H]1c1cccc2[nH]ccc12)c1ccc(OCC(F)(F)F)cn1 (relative stereo) [Example 277, (1R*,2R*)-2-(1H-indol-4-yl)-N-((R)-1-(5-(2,2,2-trifluoroethoxy)pyridin-2-yl)ethyl)cyclopropanecarboxamide] here?
The IC50 was at most 0.3 µM.

For C[C@@H](NC(=O)[C@@H]1C[C@H]1c1cccc2[nH]ccc12)c1cnc(OCC(F)(F)F)cn1 (relative stereo) [Example 279, (1R*,2R*)-2-(1H-Indol-4-yl)-N-((R)-1-(5-(2,2,2-trifluoroethoxy)pyrazin-2-yl)ethyl)cyclopropanecarboxamide], which IC50 is on record?
Its IC50 is at most 0.3 µM.

For C[C@@H](NC(=O)[C@H]1C[C@@H]1c1ccccc1)c1ccc(OCC(F)(F)F)cn1 (relative stereo) [Example 280, (1S*,2S*)-2-phenyl-N-((R)-1-(5-(2,2,2-trifluoroethoxy)pyridin-2-yl)ethyl)cyclopropanecarboxamide], which IC50 is on record?
The IC50 was at most 0.3 µM.

C[C@@H](NC(=O)[C@H]1C[C@@H]1c1ccccc1)c1cnc(OCC(F)(F)F)cn1 (relative stereo) [Example 282, (1S*,2S*)-2-phenyl-N-((R)-1-(5-(2,2,2-trifluoroethoxy)pyrazin-2-yl)ethyl)cyclopropanecarboxamide] was tested. Which IC50 did it give?
Its IC50 is at most 0.3 µM.

C[C@@H](NC(=O)[C@H]1C[C@@H]1c1ccccc1)c1ccc(OCC(F)(F)F)nc1 (relative stereo) [Example 284, (1S*,2S*)-2-phenyl-N-((R)-1-(6-(2,2,2-trifluoroethoxy)pyridin-3-yl)ethyl)cyclopropanecarboxamide] was tested. Which IC50 did it give?
The IC50 was at most 0.3 µM.

With C[C@@H](NC(=O)[C@H]1C[C@@H]1c1nc2ccccc2[nH]1)c1cnc(OCC(F)(F)F)cn1 (relative stereo) [Example 286, (1S*,2S*)-2-(1H-benzo[d]imidazol-2-yl)-N-((R)-1-(5-(2,2,2-trifluoroethoxy)pyrazin-2-yl)ethyl)cyclopropanecarboxamide] as the compound, how does the IC50 read?
Its IC50 is at most 0.3 µM.

Which IC50 does the source give for C[C@@H](NC(=O)[C@H]1C[C@@H]1c1nc2ccccc2[nH]1)c1ccc(OCC(F)(F)F)nc1 (relative stereo) [Example 287, (1S*,2S*)-2-(1H-benzo[d]imidazol-2-yl)-N-((R)-1-(6-(2,2,2-trifluoroethoxy)pyridin-3-yl)ethyl)cyclopropanecarboxamide] here?
The IC50 was at most 0.3 µM.

How did the IC50 turn out when C[C@@H](NC(=O)[C@@H]1C[C@H]1c1nc2cc(F)ccc2[nH]1)c1ccc(OCC(F)(F)F)nc1 (relative stereo) [Example 289, (1R*,2R*)-2-(5-fluoro-1H-benzo[d]imidazol-2-yl)-N-((R)-1-(6-(2,2,2-trifluoroethoxy)pyridin-3-yl)ethyl) cyclopropanecarboxamide] was run?
Its IC50 is at most 0.3 µM.

For C[C@@H](NC(=O)[C@H]1C[C@@H]1COc1cccc(F)c1)c1ccc(OCC(F)(F)F)cn1 (relative stereo) [Example 294, (1S*,2S*)-2-((3-fluorophenoxy)methyl)-N-((R)-1-(5-(2,2,2-trifluoroethoxy)pyridin-2-yl)ethyl)cyclopropanecarboxamide], which IC50 is on record?
Its IC50 is at most 0.3 µM.

With C[C@@H](NC(=O)[C@H]1C[C@@H]1COc1ccc(F)cc1)c1ccc(OCC(F)(F)F)cn1 (relative stereo) [Example 296, (1S*,2S*)-2-((4-fluorophenoxy)methyl)-N-((R)-1-(5-(2,2,2-trifluoroethoxy)pyridin-2-yl)ethyl)cyclopropanecarboxamide] as the compound, how does the IC50 read?
Its IC50 is at most 0.3 µM.

Which IC50 does the source give for C[C@@H](NC(=O)[C@H]1C[C@@H]1c1ccc(OCc2ccccn2)cc1)c1ccc(OCC(F)(F)F)cn1 (relative stereo) [Example 305, (1S*,2S*)-2-(4-(pyridin-2-ylmethoxy)phenyl)-N-((R)-1-(5-(2,2,2-trifluoroethoxy)pyridin-2-yl)ethyl)cyclopropanecarboxamide] here?
The IC50 was at most 0.3 µM.

For C[C@@H](NC(=O)[C@H]1C[C@@H]1c1cccc(OCc2ccccn2)c1)c1ccc(OCC(F)(F)F)cn1 (relative stereo) [Example 306, (1S*,2S*)-2-(3-(pyridin-2-ylmethoxy)phenyl)-N-((R)-1-(5-(2,2,2-trifluoroethoxy)pyridin-2-yl)ethyl)cyclopropanecarboxamide], which IC50 is on record?
The IC50 was at most 0.3 µM.

Which IC50 does the source give for COc1ccc([C@H]2C[C@@H]2C(=O)N[C@H](C)c2ccc(OCC3CC3)cn2)cc1C (relative stereo) [Example 307, (1S*,2S*)-N-((R)-1-(5-(cyclopropyl-methoxy)pyridin-2-yl)ethyl)-2-(4-methoxy-3-methylphenyl) cyclopropanecarboxamide] here?
Its IC50 is at most 0.3 µM.

For COc1ccc([C@H]2C[C@@H]2C(=O)N[C@H](C)c2cnc(OCC(F)(F)F)cn2)cc1C (relative stereo) [Example 309, (1S*,2S*)-2-(4-methoxy-3-methylphenyl)-N-((R)-1-(5-(2,2,2-trifluomethoxy)pyrazin-2-yl)ethyl)cyclopropanecarboxamide], which IC50 is on record?
Its IC50 is at most 0.3 µM.

COc1ccc([C@@H]2C[C@H]2C(=O)N[C@H](C)c2cnc(OCC(F)(F)F)cn2)cc1C (relative stereo) [Example 310, (1R*,2R*)-2-(4-methoxy-3-methylphenyl)-N-((R)-1-(5-(2,2,2-trifluoroethoxy)pyrazin-2-yl)ethyl)cyclopropanecarboxamide] was tested. Which IC50 did it give?
The IC50 was at most 0.3 µM.

How did the IC50 turn out when C[C@@H](NC(=O)[C@H]1C[C@@H]1c1cccc2cc[nH]c12)c1ccc(OCC2CC2)cn1 (relative stereo) [Example 316, (1S*,2S*)-N-((R)-1-(5-(cyclopropylmethoxy)pyridin-2-yl)ethyl)-2-(1H-indol-7-yl)cyclopropanecarboxamide] was run?
The IC50 was at most 0.3 µM.

For C[C@@H](NC(=O)[C@@H]1C[C@H]1c1cccc2cc[nH]c12)c1ccc(OCC2CC2)cn1 (relative stereo) [Example 317, (1R*,2R*)-N-((R)-1-(5-(cyclopropylmethoxy)pyridin-2-yl)ethyl)-2-(1H-indol-7-yl)cyclopropanecarboxamide], which IC50 is on record?
The IC50 was at most 0.3 µM.

For C[C@@H](NC(=O)[C@H]1C[C@@H]1COc1ccccc1)c1cnc(OCC(F)(F)F)cn1 (relative stereo) [Example 318, (1S*,2S*)-2-(phenoxymethyl)-N-((R)-1-(5-(2,2,2-trifluoroethoxy)pyrazin-2-yl)ethyl)cyclopropanecarboxamide], which IC50 is on record?
Its IC50 is at most 0.3 µM.

With C[C@@H](NC(=O)[C@H]1C[C@@H]1COc1ccccc1)c1ccc(OCC(F)(F)F)nc1 (relative stereo) [Example 320, (1S*,2S*)-2-(phenoxymethyl)-N-((R)-1-(6-(2,2,2-trifluoroethoxy)pyridin-3-yl)ethyl)cyclopropanecarboxamide] as the compound, how does the IC50 read?
Its IC50 is at most 0.3 µM.

For C[C@@H](NC(=O)[C@H]1C[C@@H]1c1cccc2cc[nH]c12)c1cnc(OCC(F)(F)F)cn1 (relative stereo) [Example 322, (1S*,2S*)-2-(1H-indol-7-yl)-N-((R)-1-(5-(2,2,2-trifluoroethoxy)pyrazin-2-yl)ethyl)cyclopropanecarboxamide], which IC50 is on record?
The IC50 was at most 0.3 µM.

C[C@@H](NC(=O)[C@@H]1C[C@H]1c1cccc2cc[nH]c12)c1cnc(OCC(F)(F)F)cn1 (relative stereo) [Example 323, (1R*,2R*)-2-(1H-indol-7-yl)-N-((R)-1-(5-(2,2,2-trifluoroethoxy)pyrazin-2-yl)ethyl)cyclopropanecarboxamide] was tested. Which IC50 did it give?
Its IC50 is at most 0.3 µM.

C[C@@H](NC(=O)[C@@H]1C[C@H]1c1ccc2ccccc2n1)c1ccc(OCC(F)(F)F)cn1 (relative stereo) [Example 325, (1R*,2R*)-2-(quinolin-2-yl)-N-((R)-1-(5-(2,2,2-trifluoroethoxy)pyridin-2-yl)ethyl)cyclopropanecarboxamide] was tested. Which IC50 did it give?
Its IC50 is at most 0.3 µM.

C[C@@H](NC(=O)[C@H]1C[C@@H]1c1cc(F)ccc1F)c1ccc(OCC(F)(F)F)cn1 (relative stereo) [Example 327, (1S*,2S*)-2-(2,5-difluorophenyl)-N-((R)-1-(5-(2,2,2-trifluoroethoxy)pyridin-2-yl)ethyl)cyclopropanecarboxamide] was tested. Which IC50 did it give?
The IC50 was at most 0.3 µM.

How did the IC50 turn out when C[C@@H](NC(=O)C1CC1c1cn(C)c2ccccc12)c1ccc(OCC(F)(F)F)cn1 (stereo in doubt) [Example 106, trans-2-(1-methyl-1H-indol-3-yl)-N-((R)-1-(5-(2,2,2-trifluoroethoxy)pyridin-2-yl)ethyl)cyclopropanecarboxamide] was run?
The IC50 was at most 0.3 µM.
